Key:
[1] = molecular target: hTDO2‐overexpressing HEK‐293 cells (HEK‐hTDO) (Homo sapiens, UniProt P48775); assay: Cell-based TDO assay, HEK‐hTDO cells (NFK Green); conditions: HEK293, read-out: inhibition HEK‐hTDO
[2] = molecular target: human IDO1‐overexpressing HEK‐293 cells (HEK‐hIDO1) (Homo sapiens, UniProt P14902); assay: Cell-based IDO1 assay, HEK‐hIDO1 cells (NFK Green); conditions: HEK293, read-out: inhibition HEK‐hIDO1
Procedure: Inhibition of Trp‐to‐NFK conversion in HEK‐hTDO, HEK‐hIDO1, and SW48 cells was measured with NFK Green, essentially as described previously for cancer cell lines. Cell density, incubation time, and Trp concentrations were optimized. For the TDO assay with HEK‐hTDO and SW48 cells, 200 µM Trp was added to the culture medium. No additional Trp was added for the IDO1 assay with HEK‐hIDO1 cells. The incubation time with compound was 42 h for the assays with HEK‐hTDO and HEK‐hIDO1 cells, and 18 h for the assay with SW48 cells.

[3] = molecular target: T1, human MDR1 P-glycoprotein (ABCB1) (Homo sapiens, UniProt P08183); assay: Bi‐directional transport assay, MDCK‐MDR1 monolayer; type: in vitro ADME; conditions: dog; MDCK‐MDR1; Elacridar −
T1 construct: host or cells: MDCK (canine kidney)
Procedure: (§1) To determine whether NTRC 3531‐0 could potentially enter the brain, a bi‐directional transport assay was performed with Madin‐Darby canine kidney (MDCK) cells overexpressing the human ABCB1 gene‐encoded MDR1 P‐glycoprotein (MDCK‐MDR1) at Cyprotex (Macclesfield, UK). MDCK‐MDR1 cells form a confluent monolayer in Transwell® cell culture plates (Corning) and express active MDR1 P‐glycoprotein at the apical side. The cell model is a surrogate model of the brain capillary endothelial cell layer that constitutes the blood–brain barrier. The transport of NTRC 3531‐0 from the apical (A) to the basolateral (B) side of the monolayer (P app, A to B), and from basolateral (B) to apical (A) (P app, B to A), was determined by measuring compound levels in the two compartments of the Transwell plates by liquid chromatography–tandem mass spectrometry (LC‐MS/MS) (Table 2). Transport assays were performed in the absence and presence of the P‐glycoprotein inhibitor elacridar.

[4] = molecular target: T2, human MDR1 P‐glycoprotein‐overexpressing MDCK cells (Homo sapiens, UniProt P08183); assay: as above; type: in vitro ADME; conditions: MDCK‐MDR1, with and without elacridar
T2 construct: host or cells: MDCK (canine kidney)
Procedure: as §1

[5] = test system: TDO activity in vivo; assay: Trp and Kyn levels in plasma and brain of the PK studies (LC‐MS/MS); design: species or system male C57BL/6NCrl mice; conditions: mice, single p.o. 50 mg·kg^−1
[6] = test system: rotenone‐induced mouse model of PD; assay: α‐Synuclein immunofluorescent staining of colon in rotenone model; type: in vivo, male C57BL/6NCrl mice; conditions: rotenone mice; all doses: 12.5 mg·kg^−1, P < 0.01; 25 and 50 mg·kg^−1, P < 0.001
Procedure: Parkinson’s disease is associated with the activation of glial cells in the enteric nervous system. Furthermore, aggregates of α‐synuclein have been observed in the enteric nervous system of PD patients. The expression of glial fibrillary acidic protein (GFAP), a marker of enteric glial cells, and of α‐synuclein was determined by immunofluorescent staining of fixed sections of the colons of the sacrificed mice.
Expression of GFAP and α‐synuclein in colonic tissue was determined using confocal microscopy (Leica SP8). The colons of the mice were embedded in paraffin. Sections of 15 µm were cut and incubated with 0.3% (v/v) H2O2 for 30 min, rehydrated and incubated with citrate buffer. Following blocking with serum, the sections were incubated overnight with rabbit anti‐α‐synuclein (Millipore, cat. no. AB5038; Burlington, MA, USA) at a dilution of 1 : 1000, or rabbit anti‐GFAP (Dako, cat. no. Z0334), 1 : 1000. After incubation with Alexa® 488‐labeled donkey anti‐rabbit secondary antibody, the slides were mounted using Vectashield® medium for fluorescence with DAPI (Vector Laboratories, cat. no. H‐1000; Burlingame, CA, USA).
Immunofluorescence images were made using a Keyence BZ‐9000 microscope. GFAP and α‐synuclein staining were quantified by calculation of the corrected total fluorescence (CTF) with the formula: integrated density – (area × mean fluorescence of background reading).

[7] = test system: any cell line used in this study; assay: Cell viability assay (ATPlite 1Step); conditions: in parallel with the cell‐based NFK Green assays
Procedure: In parallel with the cell‐based NFK Green assays, the cytotoxicity of the compounds was determined in cell viability assays using ATPlite™ 1Step (PerkinElmer, Groningen, The Netherlands).

[8] = molecular target: SW48 (hTDO) (Homo sapiens, UniProt P48775); assay: cell-based; conditions: SW48, read-out: inhibition in SW48 cells
[9] = test system: rotenone‐induced mouse model of PD; assay: Colon length in rotenone model; conditions: rotenone mice; two highest doses (25 and 50 mg·kg^−1); P < 0.05
[10] = molecular target: recombinant hIDO1 (Homo sapiens, UniProt P14902); assay: IDO1 biochemical assay (NFK Green); conditions: read-out: inhibition hIDO1
[11] = test system: rotenone‐induced mouse model of PD; assay: Spatial memory test in rotenone model; conditions: rotenone mice; 42 days after surgery; highest dose (50 mg·kg^−1); similar trend
[12] = molecular target: mouse TDO (mTDO) (Mus musculus, UniProt P48776); assay: TDO biochemical assay (NFK Green), mTDO
[13] = In vivo pharmacokinetics and brain penetration; conditions: for AUC: AUCplasma; for Cmax: plasma; for half-life: t½; for Kp uu: Kpuu (unbound brain‐to‐plasma partition coefficient)
[14] = test system: rotenone‐induced mouse model of PD; assay: Microglia (Iba1) volume and occupied space in substantia nigra, iDISCO; conditions: highest dose (50 mg·kg^−1); P < 0.05
[15] = male, C57BL/6NCrl, mouse, in vivo, iv, 10 mg, mice, 10 mg∙kg^−1
[16] = male, C57BL/6NCrl, mouse, in vivo, po, 50 mg
[17] = male, C57BL/6NCrl, mouse, in vivo, po, 50 mg, mice, 5‐day p.o., 50 mg∙kg^−1
[18] = male, C57BL/6NCrl, mouse, in vivo, po, 50 mg, mice, single p.o., 50 mg∙kg^−1

T1 sequence (P08183 whole entry): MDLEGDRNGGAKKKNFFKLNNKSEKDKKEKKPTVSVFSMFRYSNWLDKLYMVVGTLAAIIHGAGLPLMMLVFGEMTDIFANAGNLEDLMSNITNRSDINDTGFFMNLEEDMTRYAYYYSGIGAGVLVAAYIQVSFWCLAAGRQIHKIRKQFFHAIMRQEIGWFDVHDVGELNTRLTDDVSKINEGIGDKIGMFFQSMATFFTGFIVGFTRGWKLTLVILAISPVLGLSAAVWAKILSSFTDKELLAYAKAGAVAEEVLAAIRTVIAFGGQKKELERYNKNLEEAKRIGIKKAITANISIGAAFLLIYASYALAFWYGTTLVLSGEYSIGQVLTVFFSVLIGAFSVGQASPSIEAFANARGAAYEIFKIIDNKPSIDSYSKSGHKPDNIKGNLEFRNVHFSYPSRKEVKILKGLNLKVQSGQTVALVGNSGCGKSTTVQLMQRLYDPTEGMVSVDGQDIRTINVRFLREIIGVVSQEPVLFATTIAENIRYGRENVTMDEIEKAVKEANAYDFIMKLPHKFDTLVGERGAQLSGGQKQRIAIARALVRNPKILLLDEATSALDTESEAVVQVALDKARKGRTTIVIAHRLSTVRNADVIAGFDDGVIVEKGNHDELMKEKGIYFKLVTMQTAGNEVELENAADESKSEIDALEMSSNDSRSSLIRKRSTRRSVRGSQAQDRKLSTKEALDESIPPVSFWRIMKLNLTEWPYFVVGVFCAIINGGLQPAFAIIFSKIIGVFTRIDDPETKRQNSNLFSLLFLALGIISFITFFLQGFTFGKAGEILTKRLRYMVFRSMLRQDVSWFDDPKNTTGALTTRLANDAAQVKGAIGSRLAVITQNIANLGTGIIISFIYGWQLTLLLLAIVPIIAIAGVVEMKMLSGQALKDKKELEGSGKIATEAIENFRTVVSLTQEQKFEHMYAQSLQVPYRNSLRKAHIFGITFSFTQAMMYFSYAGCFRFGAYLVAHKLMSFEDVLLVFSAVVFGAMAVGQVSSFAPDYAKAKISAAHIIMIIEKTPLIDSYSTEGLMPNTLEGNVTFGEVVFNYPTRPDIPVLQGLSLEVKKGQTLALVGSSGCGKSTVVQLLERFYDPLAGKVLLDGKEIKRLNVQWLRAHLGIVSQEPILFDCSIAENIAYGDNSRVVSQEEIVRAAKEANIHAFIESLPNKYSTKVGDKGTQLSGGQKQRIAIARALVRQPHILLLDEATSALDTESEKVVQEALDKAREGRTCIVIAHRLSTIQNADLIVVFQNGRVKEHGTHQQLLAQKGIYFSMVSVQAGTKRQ
hTDO2‐overexpressing HEK‐293 cells (HEK‐hTDO), sequence (P48775 whole entry): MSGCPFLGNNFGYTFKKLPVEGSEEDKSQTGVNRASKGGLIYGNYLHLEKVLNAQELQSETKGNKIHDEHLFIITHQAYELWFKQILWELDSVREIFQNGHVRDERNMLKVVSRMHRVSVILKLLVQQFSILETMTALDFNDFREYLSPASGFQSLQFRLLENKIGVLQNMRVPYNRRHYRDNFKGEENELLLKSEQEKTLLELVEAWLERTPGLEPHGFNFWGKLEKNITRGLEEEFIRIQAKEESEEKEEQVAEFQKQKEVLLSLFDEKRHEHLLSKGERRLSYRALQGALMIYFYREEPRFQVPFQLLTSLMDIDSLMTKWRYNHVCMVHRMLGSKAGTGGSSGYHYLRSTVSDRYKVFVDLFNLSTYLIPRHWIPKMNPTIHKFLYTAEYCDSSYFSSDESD
SW48 (hTDO), sequence (P48775 whole entry): as above
mouse TDO (mTDO), sequence (P48776 whole entry): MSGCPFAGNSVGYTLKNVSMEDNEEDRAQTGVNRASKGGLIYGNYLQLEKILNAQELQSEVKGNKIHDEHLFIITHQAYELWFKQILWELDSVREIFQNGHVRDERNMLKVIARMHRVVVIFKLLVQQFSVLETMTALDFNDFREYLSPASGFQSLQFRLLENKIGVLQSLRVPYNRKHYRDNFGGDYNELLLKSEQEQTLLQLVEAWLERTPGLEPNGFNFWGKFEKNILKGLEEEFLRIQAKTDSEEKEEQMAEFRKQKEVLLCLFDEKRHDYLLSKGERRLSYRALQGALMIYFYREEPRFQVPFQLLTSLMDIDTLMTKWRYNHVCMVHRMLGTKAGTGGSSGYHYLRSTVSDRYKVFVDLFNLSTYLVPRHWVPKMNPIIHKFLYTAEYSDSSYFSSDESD
recombinant hIDO1, sequence (P14902 whole entry): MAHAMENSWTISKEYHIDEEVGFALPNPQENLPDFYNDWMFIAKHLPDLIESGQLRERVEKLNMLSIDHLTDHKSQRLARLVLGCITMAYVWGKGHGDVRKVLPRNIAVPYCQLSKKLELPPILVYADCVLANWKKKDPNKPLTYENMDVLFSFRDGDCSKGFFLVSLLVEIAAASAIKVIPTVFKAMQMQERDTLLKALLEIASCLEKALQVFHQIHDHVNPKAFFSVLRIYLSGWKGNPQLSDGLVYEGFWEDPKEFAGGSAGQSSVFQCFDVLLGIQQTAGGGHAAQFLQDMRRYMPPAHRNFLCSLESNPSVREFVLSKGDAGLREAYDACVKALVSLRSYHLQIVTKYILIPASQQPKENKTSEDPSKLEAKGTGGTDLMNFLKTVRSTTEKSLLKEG
human IDO1‐overexpressing HEK‐293 cells (HEK‐hIDO1), sequence (P14902 whole entry): as above
T2 sequence (P08183 whole entry): as the sequence (P08183 whole entry) above

Structure (SMILES): Fc1ccc2c(/C=C/c3nnn[nH]3)c[nH]c2c1 [LM10, reference compound]
- inhibition at 0.6 µM [1]: 33%
- inhibition at 0.6 µM [2]: < 20%
- Papp A→B [3]: 5.63 ×10⁻⁶ cm/s
- Papp B→A [3]: 1.58 ×10⁻⁶ cm/s
- P‐glycoprotein substrate status [4]: not a P‐glycoprotein substrate
- Trp levels in plasma and brain compared to vehicle [5]: no increase
- Kyn levels in plasma ([5]; 0.25 h P < 0.01, 0.5 h P < 0.05): only the initial decrease in Kyn levels was found to be significant
- expression of α‐synuclein in the enteric plexus [6]: decrease in the expression of α‐synuclein
- cytotoxicity [7]: not cytotoxic
- inhibition at 31.6 µM [8]: 50%
- colon length (rotenone‐induced intestinal inflammatory response) [9]: reduced the rotenone‐induced intestinal inflammatory response
- inhibition at 0.6 µM [10]: < 20%
- rotenone‐induced spatial recognition loss [11]: not statistically significant
- IC50 [12]: 1070 nM
- bioavailability ([13]; male, C57BL/6NCrl, mouse, in vivo, 50 mg/kg, F (oral bioavailability), mice, single p.o. 50 mg∙kg^−1 compared with i.v. 10 mg∙kg^−1): 63%
- AUC [13, 15]: 985 µM·h
- Cmax [13, 15]: 427 µM
- half-life [13, 15]: 1.77 h
- Kp [13, 16]: 0.006
- Kp at 5 days [13, 16]: 0.01
- AUC [13, 17]: 2360 µM·h
- AUC [13, 18]: 3100 µM·h
- Cmax [13, 17]: 391 µM
- Cmax [13, 18]: 688 µM
- Kp uu [13, 17]: 0.02
- Kp uu [13, 18]: 0.012
- half-life [13, 17]: 2.35 h
- half-life [13, 18]: 3.09 h
- AUCbrain ([13]; mice, 5‐day p.o., 50 mg∙kg^−1): 23.8 µM·h
- F (oral bioavailability) ([13]; mice, single p.o. 50 mg∙kg^−1 compared with i.v. 10 mg∙kg^−1): 63.1%
- AUCbrain ([13]; mice, single p.o., 50 mg∙kg^−1): 18.5 µM·h
- mean microglia volume in the SN of rotenone‐treated mice [14]: reduced the mean microglia volume

— PMC8359396, “Pharmacological validation of TDO as a target for Parkinson’s disease” (The Febs Journal, 2021)
